Where two headings read alike, the source gives them in different places.

In one test the target is T1, Serotonin 5-HT1A (Homo sapiens, UniProt P08908).
T1 sequence (P08908 1-422): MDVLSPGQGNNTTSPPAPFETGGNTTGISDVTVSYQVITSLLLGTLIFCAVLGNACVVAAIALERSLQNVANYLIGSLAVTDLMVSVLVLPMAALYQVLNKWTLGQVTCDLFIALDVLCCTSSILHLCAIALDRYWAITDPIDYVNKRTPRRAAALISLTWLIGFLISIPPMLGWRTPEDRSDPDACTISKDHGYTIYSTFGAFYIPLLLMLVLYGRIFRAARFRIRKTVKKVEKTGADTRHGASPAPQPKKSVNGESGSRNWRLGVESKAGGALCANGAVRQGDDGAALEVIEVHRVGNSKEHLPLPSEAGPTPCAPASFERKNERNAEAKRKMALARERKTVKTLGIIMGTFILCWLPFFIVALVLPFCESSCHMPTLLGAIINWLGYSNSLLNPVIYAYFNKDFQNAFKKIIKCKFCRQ
The test can be described thus: Receptor binding, 5-HT1A.

The next test deals with Dopamine D5 (Homo sapiens, UniProt P21918). Nature of the test: Receptor binding, D5.
Sequence of Dopamine D5 (P21918 whole entry): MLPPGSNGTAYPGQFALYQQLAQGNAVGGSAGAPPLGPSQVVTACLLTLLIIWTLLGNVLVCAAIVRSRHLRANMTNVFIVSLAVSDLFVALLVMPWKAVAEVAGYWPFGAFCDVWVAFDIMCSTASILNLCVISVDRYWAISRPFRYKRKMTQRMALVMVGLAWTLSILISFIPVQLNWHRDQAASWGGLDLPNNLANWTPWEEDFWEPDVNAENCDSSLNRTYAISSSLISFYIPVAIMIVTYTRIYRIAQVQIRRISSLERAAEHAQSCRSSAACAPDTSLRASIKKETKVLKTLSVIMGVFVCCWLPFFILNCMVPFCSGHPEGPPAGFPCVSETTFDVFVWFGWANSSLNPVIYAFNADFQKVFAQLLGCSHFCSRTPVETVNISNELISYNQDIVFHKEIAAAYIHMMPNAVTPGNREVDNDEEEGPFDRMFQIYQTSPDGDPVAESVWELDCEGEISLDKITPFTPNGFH
A further test addresses Muscarinic M3 (Homo sapiens, UniProt P20309). Nature of the test: Receptor binding, M3.
Another test concerns the target α-Adrenergic α1D (Homo sapiens, UniProt P25100). The test can be described thus: Receptor binding, α1D.
The target of another test is Opioid κ (Homo sapiens, UniProt P41145). Nature of the test: Receptor binding, opioid κ.
In a further test the target is T2, Serotonin 5-HT2C (Homo sapiens, UniProt P28335).
T2 sequence (P28335 33-458): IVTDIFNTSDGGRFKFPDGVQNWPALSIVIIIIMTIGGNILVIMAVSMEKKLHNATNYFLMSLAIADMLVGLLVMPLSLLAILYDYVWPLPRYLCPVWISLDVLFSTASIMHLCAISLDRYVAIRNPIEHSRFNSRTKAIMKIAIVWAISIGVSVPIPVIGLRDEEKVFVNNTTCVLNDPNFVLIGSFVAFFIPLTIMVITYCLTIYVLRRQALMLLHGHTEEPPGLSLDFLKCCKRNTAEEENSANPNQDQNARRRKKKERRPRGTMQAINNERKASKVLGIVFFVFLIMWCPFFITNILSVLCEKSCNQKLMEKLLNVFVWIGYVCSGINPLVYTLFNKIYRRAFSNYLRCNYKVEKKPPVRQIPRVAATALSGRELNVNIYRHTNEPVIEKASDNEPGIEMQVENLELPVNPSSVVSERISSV
The test can be described thus: Receptor binding, 5-HT2C. Particulars: 5-HT2C.

The next test deals with Histamine H2 (Homo sapiens, UniProt P25021). Nature of the test: Receptor binding, H2.
For another test, the target named is Muscarinic M5 (Homo sapiens, UniProt P08912). Nature of the test: Receptor binding, M5.
The next test addresses Muscarinic M1 (Homo sapiens, UniProt P11229). Nature of the test: Receptor binding, M1.
The target in another test is Serotonin 5-HT6 (Homo sapiens, UniProt P50406). The test can be described thus: Receptor binding, 5-HT6. To be noted: for Ki: 5-HT6.
Sequence of Serotonin 5-HT6 (P50406 whole entry): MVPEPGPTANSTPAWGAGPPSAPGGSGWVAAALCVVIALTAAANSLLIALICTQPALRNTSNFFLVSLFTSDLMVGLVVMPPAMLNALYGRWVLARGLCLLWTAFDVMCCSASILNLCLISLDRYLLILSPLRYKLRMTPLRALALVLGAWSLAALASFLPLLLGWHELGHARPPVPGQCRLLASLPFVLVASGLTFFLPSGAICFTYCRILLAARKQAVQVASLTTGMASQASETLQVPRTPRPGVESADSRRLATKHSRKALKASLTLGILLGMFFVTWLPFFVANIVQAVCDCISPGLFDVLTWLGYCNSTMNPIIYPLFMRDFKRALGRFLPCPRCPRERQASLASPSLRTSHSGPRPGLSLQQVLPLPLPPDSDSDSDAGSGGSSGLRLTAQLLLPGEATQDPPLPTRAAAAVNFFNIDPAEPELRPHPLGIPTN
The target of the next test is Serotonin transporter (Homo sapiens, UniProt P31645). The test can be described thus: Receptor binding, serotonin transporter.
Sequence of Serotonin transporter (P31645 whole entry): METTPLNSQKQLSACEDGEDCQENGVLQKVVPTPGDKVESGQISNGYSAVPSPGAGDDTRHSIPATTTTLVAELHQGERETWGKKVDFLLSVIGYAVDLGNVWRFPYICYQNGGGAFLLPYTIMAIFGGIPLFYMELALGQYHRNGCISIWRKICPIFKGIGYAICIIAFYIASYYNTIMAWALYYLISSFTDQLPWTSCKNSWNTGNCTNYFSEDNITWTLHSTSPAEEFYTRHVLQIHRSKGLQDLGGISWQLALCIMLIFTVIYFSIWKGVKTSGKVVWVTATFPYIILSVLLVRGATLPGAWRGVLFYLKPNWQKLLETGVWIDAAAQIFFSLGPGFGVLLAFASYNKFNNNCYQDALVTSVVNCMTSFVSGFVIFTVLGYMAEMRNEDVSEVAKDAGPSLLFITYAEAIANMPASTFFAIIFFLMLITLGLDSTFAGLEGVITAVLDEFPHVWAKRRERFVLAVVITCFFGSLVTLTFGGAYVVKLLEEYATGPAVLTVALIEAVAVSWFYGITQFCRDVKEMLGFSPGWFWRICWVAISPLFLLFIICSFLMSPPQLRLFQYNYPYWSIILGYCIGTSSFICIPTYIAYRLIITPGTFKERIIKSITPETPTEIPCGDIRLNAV
Another test has as its target Serotonin 5-HT2A (Homo sapiens, UniProt P28223). The test can be described thus: Receptor binding, 5-HT2A.
The target in another test is Serotonin 5-HT5A (Homo sapiens, UniProt P47898). Nature of the test: Receptor binding, 5-HT5A.
A further test addresses Histamine H1 (Homo sapiens, UniProt P35367). The test can be described thus: Receptor binding, H1. Particulars: for Ki: H1.
A further test has as its target Serotonin 5-HT7 (Homo sapiens, UniProt P34969). Nature of the test: Receptor binding, 5-HT7. To be noted: for Ki: 5-HT7.
The target in the next test is Dopamine D2 (Homo sapiens, UniProt P14416). Nature of the test: Receptor binding, D2.
Sequence of Dopamine D2 (P14416 whole entry): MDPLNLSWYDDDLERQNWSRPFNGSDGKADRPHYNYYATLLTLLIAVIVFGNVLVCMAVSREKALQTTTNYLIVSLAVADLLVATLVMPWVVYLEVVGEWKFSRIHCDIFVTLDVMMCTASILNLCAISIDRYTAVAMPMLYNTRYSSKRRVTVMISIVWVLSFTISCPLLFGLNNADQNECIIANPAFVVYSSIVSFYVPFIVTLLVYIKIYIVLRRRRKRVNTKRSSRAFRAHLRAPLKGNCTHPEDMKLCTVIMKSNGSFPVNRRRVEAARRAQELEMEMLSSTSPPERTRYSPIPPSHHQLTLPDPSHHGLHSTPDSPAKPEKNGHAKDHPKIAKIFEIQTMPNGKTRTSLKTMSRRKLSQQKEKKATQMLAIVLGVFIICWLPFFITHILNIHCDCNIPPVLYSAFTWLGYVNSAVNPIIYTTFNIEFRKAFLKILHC
The target in the next test is α-Adrenergic α1A (Homo sapiens, UniProt P35348). The test can be described thus: Receptor binding, α1A.
The target in another test is Serotonin 5-HT1E (Homo sapiens, UniProt P28566). Nature of the test: Receptor binding, 5-HT1E.
In a further test the target is Sigma σ2 (Homo sapiens, UniProt Q5BJF2). Nature of the test: Receptor binding, σ2. To be noted: σ2.
Sequence of Sigma σ2 (Q5BJF2 whole entry): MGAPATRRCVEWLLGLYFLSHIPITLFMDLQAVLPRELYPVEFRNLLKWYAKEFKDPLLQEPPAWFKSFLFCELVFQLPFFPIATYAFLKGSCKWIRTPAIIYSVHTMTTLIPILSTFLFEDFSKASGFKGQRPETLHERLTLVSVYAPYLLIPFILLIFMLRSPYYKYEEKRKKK
The next test deals with α-Adrenergic α1B (Homo sapiens, UniProt P35368). Nature of the test: Receptor binding, α1B.
The target of a further test is T3, α-Adrenergic α2C (Homo sapiens, UniProt P18825).
T3 sequence (P18825 1-462): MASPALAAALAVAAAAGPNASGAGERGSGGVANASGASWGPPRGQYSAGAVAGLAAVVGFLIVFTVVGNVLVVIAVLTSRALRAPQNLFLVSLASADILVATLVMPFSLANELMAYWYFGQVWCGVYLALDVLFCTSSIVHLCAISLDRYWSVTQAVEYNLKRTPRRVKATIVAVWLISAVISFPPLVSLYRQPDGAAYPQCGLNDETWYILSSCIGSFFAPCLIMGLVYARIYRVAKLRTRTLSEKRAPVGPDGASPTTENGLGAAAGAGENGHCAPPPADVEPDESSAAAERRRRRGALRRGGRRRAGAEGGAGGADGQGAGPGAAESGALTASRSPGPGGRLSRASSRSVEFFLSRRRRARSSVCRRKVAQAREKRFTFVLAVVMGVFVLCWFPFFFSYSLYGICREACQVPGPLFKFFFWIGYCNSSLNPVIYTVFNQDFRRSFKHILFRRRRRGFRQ
Nature of the test: Receptor binding, α2C.

Another test deals with Serotonin 5-HT2B (Homo sapiens, UniProt P41595). The test can be described thus: Receptor binding, 5-HT2B.
Sequence of Serotonin 5-HT2B (P41595 whole entry): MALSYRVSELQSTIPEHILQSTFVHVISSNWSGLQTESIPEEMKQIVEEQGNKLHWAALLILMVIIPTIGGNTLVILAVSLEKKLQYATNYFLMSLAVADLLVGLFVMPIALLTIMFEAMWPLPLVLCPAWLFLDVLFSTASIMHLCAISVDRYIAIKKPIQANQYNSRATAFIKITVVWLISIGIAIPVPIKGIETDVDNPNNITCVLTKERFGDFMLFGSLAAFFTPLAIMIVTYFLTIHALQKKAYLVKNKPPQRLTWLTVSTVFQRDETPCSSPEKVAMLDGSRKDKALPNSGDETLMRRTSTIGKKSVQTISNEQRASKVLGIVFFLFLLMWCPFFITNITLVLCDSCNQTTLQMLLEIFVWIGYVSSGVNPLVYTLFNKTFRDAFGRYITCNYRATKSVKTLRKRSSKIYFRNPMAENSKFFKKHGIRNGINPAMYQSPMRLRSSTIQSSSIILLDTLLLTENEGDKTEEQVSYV
For a further test, the target named is Serotonin 5-HT1D (Homo sapiens, UniProt P28221). The test can be described thus: Receptor binding, 5-HT1D.
Sequence of Serotonin 5-HT1D (P28221 whole entry): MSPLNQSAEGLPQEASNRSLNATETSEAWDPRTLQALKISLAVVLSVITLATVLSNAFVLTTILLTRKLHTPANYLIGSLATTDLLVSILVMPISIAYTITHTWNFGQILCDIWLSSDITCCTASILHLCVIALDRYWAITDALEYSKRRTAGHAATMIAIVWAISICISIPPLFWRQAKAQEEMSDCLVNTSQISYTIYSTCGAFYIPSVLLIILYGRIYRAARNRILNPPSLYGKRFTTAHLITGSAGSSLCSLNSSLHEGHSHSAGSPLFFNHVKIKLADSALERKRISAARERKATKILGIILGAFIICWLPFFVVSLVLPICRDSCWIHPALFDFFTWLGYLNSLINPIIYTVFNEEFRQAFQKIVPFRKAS
For another test, the target named is T4, α-Adrenergic α2A (Homo sapiens, UniProt P08913).
T4 sequence (P08913 1-465): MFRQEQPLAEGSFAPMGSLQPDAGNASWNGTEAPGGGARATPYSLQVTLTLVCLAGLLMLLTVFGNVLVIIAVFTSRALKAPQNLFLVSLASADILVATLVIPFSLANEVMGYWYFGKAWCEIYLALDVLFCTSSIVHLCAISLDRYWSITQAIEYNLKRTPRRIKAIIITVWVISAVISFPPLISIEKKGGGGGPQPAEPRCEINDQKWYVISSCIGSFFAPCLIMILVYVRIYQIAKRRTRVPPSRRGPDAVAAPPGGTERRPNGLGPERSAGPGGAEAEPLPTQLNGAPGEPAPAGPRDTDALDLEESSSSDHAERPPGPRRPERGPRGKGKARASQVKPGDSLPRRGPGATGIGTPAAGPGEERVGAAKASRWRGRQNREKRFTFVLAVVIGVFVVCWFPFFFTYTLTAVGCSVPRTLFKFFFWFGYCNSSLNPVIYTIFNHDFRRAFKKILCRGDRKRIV
The test can be described thus: Receptor binding, α2A.

The target in the next test is T5, α-Adrenergic α2B (Homo sapiens, UniProt P18089).
T5 sequence (P18089 1-450): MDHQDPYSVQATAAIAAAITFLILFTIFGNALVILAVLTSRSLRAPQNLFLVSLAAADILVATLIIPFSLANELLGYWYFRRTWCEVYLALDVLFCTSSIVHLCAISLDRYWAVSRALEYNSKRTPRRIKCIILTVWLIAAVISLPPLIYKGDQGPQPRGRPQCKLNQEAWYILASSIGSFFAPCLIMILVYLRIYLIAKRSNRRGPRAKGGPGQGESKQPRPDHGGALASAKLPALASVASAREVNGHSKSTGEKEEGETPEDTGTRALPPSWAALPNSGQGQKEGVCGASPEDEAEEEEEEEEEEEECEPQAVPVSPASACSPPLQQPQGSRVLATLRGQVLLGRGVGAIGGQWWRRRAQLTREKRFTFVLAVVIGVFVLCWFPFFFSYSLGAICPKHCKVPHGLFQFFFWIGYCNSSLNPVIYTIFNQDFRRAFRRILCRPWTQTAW
The test can be described thus: Receptor binding, α2B.

A further test has as its target Serotonin 5-HT1B (Homo sapiens, UniProt P28222). Nature of the test: Receptor binding, 5-HT1B.
A further test concerns dopamine receptors. The test can be described thus: Receptor binding, dopamine receptors. To be noted: any of the dopamine receptors, summary of Table 1.
The target in test [1] is Norepinephrine transporter (Homo sapiens, UniProt P23975). Nature of the test: Receptor binding, norepinephrine transporter. To be noted: Transporters: Norepinephrine.
The next test has as its target Dopamine D3 (Homo sapiens, UniProt P35462). The test can be described thus: Receptor binding, D3.

Sequence of Histamine H1 (P35367 whole entry): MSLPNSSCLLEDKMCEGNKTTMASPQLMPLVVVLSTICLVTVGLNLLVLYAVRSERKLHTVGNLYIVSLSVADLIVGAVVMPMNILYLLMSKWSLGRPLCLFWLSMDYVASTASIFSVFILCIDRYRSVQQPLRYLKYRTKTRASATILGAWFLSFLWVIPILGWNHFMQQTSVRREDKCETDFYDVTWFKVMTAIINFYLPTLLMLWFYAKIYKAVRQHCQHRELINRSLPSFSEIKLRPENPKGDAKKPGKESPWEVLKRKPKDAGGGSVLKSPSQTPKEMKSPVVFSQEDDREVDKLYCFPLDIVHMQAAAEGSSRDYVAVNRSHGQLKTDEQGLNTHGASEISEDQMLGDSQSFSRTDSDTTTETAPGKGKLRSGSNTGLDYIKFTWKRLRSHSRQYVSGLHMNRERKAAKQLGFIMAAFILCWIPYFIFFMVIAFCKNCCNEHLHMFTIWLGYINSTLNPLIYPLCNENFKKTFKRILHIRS
Sequence of Serotonin 5-HT7 (P34969 whole entry): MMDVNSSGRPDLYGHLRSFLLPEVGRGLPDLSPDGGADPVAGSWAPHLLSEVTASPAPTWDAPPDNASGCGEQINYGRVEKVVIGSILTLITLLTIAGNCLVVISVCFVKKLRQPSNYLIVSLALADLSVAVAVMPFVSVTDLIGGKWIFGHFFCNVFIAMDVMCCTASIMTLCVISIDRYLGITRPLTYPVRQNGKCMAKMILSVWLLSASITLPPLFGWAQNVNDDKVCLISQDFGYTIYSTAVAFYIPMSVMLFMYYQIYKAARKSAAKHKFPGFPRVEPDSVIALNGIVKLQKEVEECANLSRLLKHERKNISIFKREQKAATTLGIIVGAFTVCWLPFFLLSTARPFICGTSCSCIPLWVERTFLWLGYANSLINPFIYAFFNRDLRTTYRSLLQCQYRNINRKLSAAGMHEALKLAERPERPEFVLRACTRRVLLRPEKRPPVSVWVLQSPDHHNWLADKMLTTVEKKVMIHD
Sequence of Serotonin 5-HT2A (P28223 whole entry): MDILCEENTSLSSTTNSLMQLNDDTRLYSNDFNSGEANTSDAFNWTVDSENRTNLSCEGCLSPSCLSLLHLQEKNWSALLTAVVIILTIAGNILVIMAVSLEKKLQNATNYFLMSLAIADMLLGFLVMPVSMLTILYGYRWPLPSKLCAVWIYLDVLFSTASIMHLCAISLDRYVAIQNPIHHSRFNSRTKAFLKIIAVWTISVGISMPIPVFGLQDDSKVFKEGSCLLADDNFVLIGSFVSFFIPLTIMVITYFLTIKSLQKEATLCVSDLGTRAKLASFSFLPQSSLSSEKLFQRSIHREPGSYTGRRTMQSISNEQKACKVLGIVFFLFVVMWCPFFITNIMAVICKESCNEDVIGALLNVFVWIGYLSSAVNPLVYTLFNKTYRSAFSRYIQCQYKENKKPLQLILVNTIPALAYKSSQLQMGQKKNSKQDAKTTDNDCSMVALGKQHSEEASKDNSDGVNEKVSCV
Sequence of Serotonin 5-HT1B (P28222 whole entry): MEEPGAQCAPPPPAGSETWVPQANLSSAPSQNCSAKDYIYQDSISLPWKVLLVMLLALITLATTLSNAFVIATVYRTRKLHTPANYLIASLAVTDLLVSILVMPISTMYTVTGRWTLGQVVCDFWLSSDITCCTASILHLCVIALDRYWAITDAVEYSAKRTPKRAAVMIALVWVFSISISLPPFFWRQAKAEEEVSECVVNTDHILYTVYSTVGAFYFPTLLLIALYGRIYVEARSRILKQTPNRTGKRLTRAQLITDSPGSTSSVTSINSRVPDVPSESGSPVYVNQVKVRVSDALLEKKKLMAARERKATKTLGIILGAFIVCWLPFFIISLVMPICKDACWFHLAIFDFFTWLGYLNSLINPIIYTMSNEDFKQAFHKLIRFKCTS

With `CN1CCc2c(c3cccc4c3n2-c2ccccc2CC4)C1` [Compound 6a, reference compound], the Ki – broadly, a measure of affinity in units of concentration, obtained from inhibition or displacement – on Serotonin 5-HT1A came out at 596 nM; at Dopamine D5, 581 nM; on Muscarinic M3, 3760 nM; at α-Adrenergic α1D it was 595 nM; on Opioid κ, 2180 nM; on Serotonin 5-HT2C it was 10 nM. The Ki at Histamine H2 was determined as 81 nM; on Muscarinic M5, 5170 nM; at Muscarinic M1 it was 4460 nM; on Serotonin 5-HT6, 155 nM; at Serotonin transporter (Transporters: Serotonin), 2190 nM; on Serotonin 5-HT2A, 24 nM. Also, the Ki came to 750 nM on Serotonin 5-HT5A; 50 nM at Histamine H1; 100 nM at Serotonin 5-HT7; 835 nM on Dopamine D2; 2370 nM on α-Adrenergic α1A; 4040 nM at Serotonin 5-HT1E. Further, the Ki at Sigma σ2 stood at 2230 nM; at α-Adrenergic α1B, 3310 nM; on α-Adrenergic α2C, 173 nM; on Serotonin 5-HT2B, 87 nM; at Serotonin 5-HT1D, 85 nM; at α-Adrenergic α2A, 228 nM. The inhibition constant (Ki) on α-Adrenergic α2B worked out at 413 nM; on Serotonin 5-HT1B, 1360 nM.

As to `CN1CCc2c(c3cccc4c3n2Cc2ccccc2C4)C1` [Compound 13a], the Ki amounted to 375 nM on Serotonin 5-HT1A; 273 nM on Serotonin 5-HT6; 2190 nM on Serotonin transporter; 736 nM on Serotonin 5-HT2A; 48 nM at Histamine H1; 212 nM at Serotonin 5-HT7. Besides, the inhibition constant Ki at Sigma σ2 is 520 nM; in test [1], greater than 10000 nM; on α-Adrenergic α2C, 770 nM; on Serotonin 5-HT2B, 57 nM; on Serotonin 5-HT1D, 29 nM; at α-Adrenergic α2A, 1800 nM. Further, the inhibitory constant (Ki) on α-Adrenergic α2B is 2190 nM; at Dopamine D3 it was 1500 nM; at Serotonin 5-HT1B, 715 nM. Also, the “binding, in words” value at Serotonin 5-HT1A (summary of Table 1) was “moderate binding”; on Serotonin 5-HT6 (5-HT6, text summary of Table 1) it was “moderate binding”; at Histamine H1 (H1, text summary of Table 1) it was “strong binding”; in the test on dopamine receptors, “neither of the two compounds 13a and 13b binds significantly”; on Serotonin 5-HT7 (5-HT7, text summary of Table 1) it was “moderate binding”; at Serotonin 5-HT2B (summary of Table 1), “strong binding”. At Serotonin 5-HT1D (summary of Table 1), the “binding, in words” value is “strong binding”.
